Data set [1] has as its target T1, Inactive α-amylase (from swine pancreas) (Sus scrofa, UniProt P00690).
T1 construct: α-amylase derived from the swine pancreas; from tissue; host or cells: swine pancreas
T1 sequence (P00690 16-511): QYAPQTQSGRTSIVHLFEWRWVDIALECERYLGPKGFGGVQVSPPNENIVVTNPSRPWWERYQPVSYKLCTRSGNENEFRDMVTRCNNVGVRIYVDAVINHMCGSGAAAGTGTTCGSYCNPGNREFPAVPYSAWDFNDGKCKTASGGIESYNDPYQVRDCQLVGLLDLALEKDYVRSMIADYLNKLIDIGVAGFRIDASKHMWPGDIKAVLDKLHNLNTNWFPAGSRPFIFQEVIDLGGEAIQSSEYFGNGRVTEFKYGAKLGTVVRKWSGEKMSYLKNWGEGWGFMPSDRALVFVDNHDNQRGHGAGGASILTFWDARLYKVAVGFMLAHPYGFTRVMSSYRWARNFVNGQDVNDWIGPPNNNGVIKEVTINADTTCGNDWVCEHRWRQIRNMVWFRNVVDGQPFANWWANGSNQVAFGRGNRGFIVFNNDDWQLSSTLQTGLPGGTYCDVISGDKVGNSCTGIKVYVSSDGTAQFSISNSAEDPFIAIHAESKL
Put plainly: Relative sensitivity in determination of calcium with 10 mg/dl calcium standard solution. The format is biochemical.

In data set [2] the target is T1, Inactive α-amylase (from swine pancreas). Described as above. Format: biochemical. Conditions: for sensitivity in the determination of the standard solution (in words): by addition of the agent, versus no addition; for Relative sensitivity (%) when sensitivity in case of no addition is taken as 100%: just after the preparation, 10 mg/dl calcium standard. The protocol: [table] In the test enzyme solutions of the reagents for the determination of calcium with the reagent formulations as described above in Example 1, glucosyl-α-cyclodextrin, maltosyl-α-cyclodextrin, glucosyl-β-cyclodextrin, or maltosyl-β-cyclodextrin was independently added as a cyclodextrin derivative at 0, 1.5, 3, 6, or 12 mM. To the test enzyme solutions containing 3 mM glucosyl-β-cyclodextrin was further added independently N-acetylcysteine or reduced glutathione at 2.5, 5, 10, or 20 mM, and the determination of calcium ions with a calcium standard solution was carried out as described below. According to the method as described below, the determination of the amount of calcium was carried out for test solutions just after the preparation with 10 mg/dl calcium standard solution as a sample, and the relative sensitivity (%) was determined under the respective reagent conditions when the sensitivity in the case of no addition of cyclodextrin derivatives was taken as 100%. B. Method for the Determination of the Amount of Calcium To 5.8 μl of a sample was added 180 μl of a test enzyme solution, and the mixture was pre-warmed for 5 minutes, to which 90 μl of a test substrate solution was further added to make the reaction start. […] The measuring apparatus used was HITACHI Automatic Analyzer model 7170. The measurement wavelength was 405 nm for the principal wavelength and 546 nm for the second wavelength. The measurement was carried out at 37° C. […] The test solutions thus prepared were used for the determination of the calcium standard solution in the same manner as described in Example 3.

Data set [3] has the same target. Put plainly: Residual activity of α-amylase in test enzyme solutions after storage. Format: biochemical. Conditions: after storage at 35° C. for 7 days. Here is the method: [table] In the test enzyme solutions of the reagents for the determination of calcium with the reagent formulations as described above in Example 1, glucosyl-α-cyclodextrin, maltosyl-α-cyclodextrin, glucosyl-β-cyclodextrin, or maltosyl-β-cyclodextrin was independently added as a cyclodextrin derivative at 12 mM. […] Instead of the cyclodextrin derivatives and the SH group containing compounds in the reagent formulations as described above in Example 1, glucose (100 mM), maltose (50 mM), maltotriose (30 mM), α-cyclodextrin (1.5 mM), β-cyclodextrin (1.5 mM), γ-cyclodextrin (1.5 mM), N-acetylcysteine (20 mM), or reduced glutathione (20 mM) was independently added to have the respective concentrations as shown in Table 3.

The nature of data set [4]: Visual observation of test solutions for deposition of crystals or white turbidity. Also noted: key to turbidity (visual observation): +: turbidity found; −: no turbidity. Format: physicochemical. The protocol:
Among the reagents for the determination of calcium with the reagent formulations as described below, test enzyme solutions were prepared by the addition of glucosyl-α-cyclodextrin (G1αCD), maltosyl-α-cyclodextrin (G2αCD), glucosyl-p-cyclodextrin (G1βCD), or maltosyl-β-cyclodextrin(G2βCD) as a cyclodextrin derivative to have a concentration of 0, 1.5, 3, 6, or 12 mM. To the test enzyme solutions containing 3 mM glucosyl-β-cyclodextrin was further added independently N-acetylcysteine or reduced glutathione to have a concentration of 2.5, 5, 10, or 20 mM.
Both kinds of test solutions prepared by the above procedures were stored at 4° C. for 3 months. Visual observation of the test solutions was carried out just after the preparation and after the storage to examine whether there was found the deposition of crystals or the presence of white turbidity. The results are shown in table 1 for the visual observation just after the preparation and in Table 2 for the visual observation after the storage.
The test solutions were prepared in the same manner as described in Example 1, except that α-cyclodextrin (αCD) (1.5, 3, 6, or 12 mM), β-cyclodextrin (βCD) (1.5, 3, 6, or 12 mM), or γ-cyclodextrin (γCD) (1.5, 3, 6, or 12 mM) was independently added instead of the cyclodextrin derivatives and the SH group containing compounds in the above reagent formulations to have the respective concentrations as shown in Table 1. Both kinds of test solutions were stored at 4° C. for 3 months. Visual observation of the test solutions was carried out just after the preparation and after the storage to examine whether there was found the deposition of crystals or the presence of white turbidity. The results are shown in Table 1 for the visual observation just after the preparation and in Table 2 for the visual observation after the storage.

The target in data set [5] is T1, Inactive α-amylase (from swine pancreas). The data set can be described thus: Calcium linearity of test solutions just after preparation and after storage. Format: biochemical. Conditions: after the storage at 35° C. for 7 days. The protocol:
To 5.8 μl of a sample was added 180 μl of a test enzyme solution, and the mixture was pre-warmed for 5 minutes, to which 90 μl of a test substrate solution was further added to make the reaction start. The change of absorbance per minute for 3 minutes was measured starting at the time when 2 minutes passed after the addition of the test substrate solution, and the amount of calcium in the sample was determined according to the two-point calibration curves for purified water and 10 mg/dl calcium standard solution.
The measuring apparatus used was HITACHI Automatic Analyzer model 7170. The measurement wavelength was 405 nm for the principal wavelength and 546 nm for the second wavelength. The measurement was carried out at 37° C.
[…] […] According to the method for the determination of the amount of calcium as described in Example 3, Sec. B, the calcium linearity was determined for test solutions just after the preparation and after the storage at 35° C. for 7 days with serial 10-fold dilutions of a 50 mg/dl aqueous calcium solution as samples.
Instead of the cyclodextrin derivatives and the SN-group containing compounds in the reagent formulations as described above in Example 1, β-cyclodextrin was added at 1.5 mM. The test solutions thus prepared were stored at 35° C. for 7 days and the calcium linearity was determined in the same manner as described in Example 3.

[6] abbreviates: after storage at 4° C. for 3 months, agent added 1.5 mM.
Where [7] appears, read: after storage at 4° C. for 3 months, agent added 3 mM.
Where [8] appears, read: after storage at 4° C. for 3 months, agent added 6 mM.
Setting [9] is: after storage at 4° C. for 3 months, agent added 12 mM.
The mark [10] stands for this setting: just after the preparation, agent added 1.5 mM.
The mark [11] stands for this setting: just after the preparation, agent added 3 mM.
The mark [12] stands for this setting: just after the preparation, agent added 6 mM.
Where [13] appears, read: just after the preparation, agent added 12 mM.

On to `OC[C@H]1O[C@H](O[C@H]2[C@H](O)[C@@H](O)C(O)O[C@@H]2CO)[C@H](O)[C@@H](O)[C@@H]1O` (mixture of isomers) [maltose], for which the “Relative sensitivity (%) when sensitivity in case of no addition is taken as 100%” value in data set [1] (agent 6.3 mM) was 99.7%; in data set [1] (agent 12.5 mM), 89.3%; in data set [1] (agent 25 mM) it was 83.9%; in data set [1] (agent 50 mM) it was 70.1%. Also, the “sensitivity in the determination of the standard solution (in words)” value in data set [2] is “remarkably decreased”. Moreover, the remaining activity (commonly what remains of the control signal, in per cent) at 50000 µM in data set [3] (agent 50 mM) turned out to be 73.5%.
In the case of `OCC1OC(OCC2OC3OC4C(CO)OC(OC5C(CO)OC(OC6C(CO)OC(OC7C(CO)OC(OC8C(CO)OC(OC9C(CO)OC(OC2C(O)C3O)C(O)C9O)C(O)C8O)C(O)C7O)C(O)C6O)C(O)C5O)C(O)C4O)C(O)C(O)C1O` (stereo not drawn) [G1βCD, glucosyl-β-cyclodextrin], the “turbidity (visual observation)” value in data set [4] (setting [6]), in data set [4] (setting [7]), in data set [4] (setting [8]), in data set [4] (setting [9]), in data set [4] (setting [10]) and in data set [4] (setting [11]) was “−” in each case. The “turbidity (visual observation)” value in data set [4] (setting [12]) and in data set [4] (setting [13]) was “−” in each case. In addition, the “Relative sensitivity (%) when sensitivity in case of no addition is taken as 100%” value in data set [2] (agent 1.5 mM) worked out at 120.7%; in data set [2] (agent 3 mM), 128.6%; in data set [2] (agent 6 mM), 133.2%; in data set [2] (agent 12 mM), 122.5%. Moreover, the “Residual activity (%)” value in data set [3] (agent 12 mM) came out at 91.7%. The “calcium linearity / quantitative reliability (in words)” value in data set [5] (agent 12 mM) is given as “the quantitative reliability was kept at high concentrations”.
Turning to `OC[C@H]1O[C@@H]2O[C@H]3[C@H](O)[C@@H](O)[C@@H](O[C@H]4[C@H](O)[C@@H](O)[C@@H](O[C@H]5[C@H](O)[C@@H](O)[C@@H](O[C@H]6[C@H](O)[C@@H](O)[C@@H](O[C@H]7[C@H](O)[C@@H](O)[C@@H](O[C@H]8[C@H](O)[C@@H](O)[C@@H](O[C@H]1[C@H](O)[C@H]2O)O[C@@H]8CO)O[C@@H]7CO)O[C@@H]6CO)O[C@@H]5CO)O[C@@H]4CO)O[C@@H]3CO` [βCD, β-cyclodextrin, reference compound], the “turbidity (visual observation)” value is reported as “−” in data set [4] (setting [6]); “−” in data set [4] (setting [7]); “+” in data set [4] (setting [8]); “+” in data set [4] (setting [9]); “−” in data set [4] (setting [10]); “−” in data set [4] (setting [11]). The “turbidity (visual observation)” value in data set [4] (setting [12]) and in data set [4] (setting [13]) was “+” each time. Besides, the “turbidity of test enzyme solution (in words)” value was “became turbid” in data set [4] (after the storage at 4° C. for 3 months, at 3 mM) and “had already become turbid” in data set [4] (just after the preparation, at 6 mM). Besides, the “Residual activity (%)” value in data set [3] (agent 1.5 mM) was determined as 77.4%. For the same compound, the “calcium linearity / quantitative reliability (in words)” value in data set [5] (agent 1.5 mM) was “became deviated upward, and the quantitative reliability was decreased at high concentrations”.
With `OCC1OC(OC2C(CO)OC(OC3C(CO)OC(O)C(O)C3O)C(O)C2O)C(O)C(O)C1O` (centres unmarked) [maltotriose], the “Relative sensitivity (%) when sensitivity in case of no addition is taken as 100%” value was 47.1% in data set [1] (agent 3.8 mM), 24.3% in data set [1] (agent 7.5 mM), 7.4% in data set [1] (agent 15 mM) and 4.6% in data set [1] (agent 30 mM). For the same compound, the “sensitivity in the determination of the standard solution (in words)” value in data set [2] was “remarkably decreased”. In addition, the “Residual activity (%)” value in data set [3] (agent 30 mM) is reported as 77.3%.

The values above are taken from US6420129B1, “Reagent composition for determination of electrolytes” (Toyo Boseki Kabushiki Kaisha, priority 1998, dated 2002).
